Experimental data: patent US12178825B2, “Method and compositions for forming a copper-containing complex and uses thereof” (COLD SPRING HARBOR LABORATORY, priority 2017, dated 2024)
“Also recorded” adds a separate entry of the source.

Legend:
[1] = Body weight in diet-induced obesity; type: in vivo, C57Bl6/J mice
Procedure: All protocols were approved by the Institutional Animal Use and Care Committee of Cold Spring Harbor laboratory. 10 week-old male mice fed chow diet or high-fat diet (D12492) were acclimatized for 10 days under standard conditions before experiments. Mice were injected intraperitoneally (i.p.) once daily with vehicle, 5 mg/kg of DPM-1001 intraperitoneally or orally for 50 days. Mice were euthanized after 6 h of fasting, and serum samples were collected to measure the metabolic parameters and tissue samples were collected for studying changes in signaling.

PTP1B1-394 = biological target: T1, PTP1B1-394 (Homo sapiens, UniProt P18031); assay: Gel filtration for aggregation of PTP1B; conditions: gel filtration elution profile
T1 construct: elution profile of PTP1B1-394 in the absence (circles) and presence (triangles) of DPM-1001; His-tag; made in house; host or cells: Escherichia coli BL21 (DE3)-RIL
Procedure: PTP1B (5 μM) was incubated with 10 μM MSI1436 in a final volume of 200 μl buffer (50 mM HEPES, pH 7.0, 100 mM NaCl, 0.2 mM EDTA, 2 mM DTT) at 4° C. The reaction mixture was then subjected to gel filtration on a Superdex 200 column (HR30/10; Pharmacia Biotech Inc.). Prior to loading the MSI1436-saturated protein sample, the column was equilibrated with 50 mM HEPES, pH 7.0, 100 mM NaCl, 0.2 mM EDTA and 2 mM DTT. The void volume (Vo) and total volume (Vt) were measured using blue dextran and Coomassie blue dye, respectively. Fractions of 0.5 ml were collected, and the protein concentration in each sample was determined by Bradford assay or by recording the UV absorption spectrum at 280 nm.

[2] = test system: triple-negative breast cancer (TNBC) cell lines; assay: MTT cell survival, triple-negative breast cancer cell lines; type: cell-based
Procedure: (§1) The MTT assay was used to evaluate cell survival in the absence and presence of different compounds. The thiazolyl blue tetrazolium bromide (MTT) was dissolved in phosphate buffered saline (PBS) at a concentration of 5 mg/ml, filtered, and stored at 4° C. About 10,000 cells were seeded into a 96-well plate and cultured in growth medium containing serum. After 24 hours, cells were treated with the indicated concentrations of DPM-1001 or DPM-1003 (0-100 uM) for 2 hrs. Following which 20 μl MTT was added into each well. An ELISA plate reader (Biotek, Winooski, Vermont, USA) was used to measure the optical density at 490 nm.

MDA-MB-231 and SUM159 = assay: Immunoblot of phospho-Erk; type: cell-based; conditions: DPM-1001 1-2 μM
From the text: Equal quantities of lysates were isolated from indicated cell lines and then resolved by SDS-PAGE and immunoblotted with one of the following primary antibodies: mouse anti-MEK1/2, rabbit anti-p-PAK1, rabbit anti-PAK1, rabbit anti-ERK1/2, rabbit anti-phospho(Ser 217/221)-MEK1/2, rabbit anti-phospho(Thr 202/Tyr 204)-ERK1/2, rabbit anti-phospho (Ser 338)-c-RAF, rabbit anti-RAF, rabbit anti-phospho (Ser 112)-BAD and rabbit anti-BAD (Cell Signaling Technology), mouse anti-β-actin (Sigma), followed by detection with one of the following horseradish peroxidase-conjugated secondary antibodies: goat anti-rabbit IgG, goat anti-mouse IgG (Invitrogen), mouse anti-rabbit light-chain-specific IgG (Jackson ImmunoResearch Laboratories) using enhanced chemiluminescence (ECL; GE Healthcare) or SuperSignal West Femto Chemiluminescent substrate (Pierce) detection reagents.

MDA-MB-231 cells = assay: Cell survival; type: cell-based
Procedure: as §1
MDA-MB-231 cells (1×10^5) were seeded in 6 cm plates in growth medium. The cells were untreated or treated with DPM-1001 (0.5, 1, 2 and 5 μM), DPM-1003 (0.5, 1, 2 and 5 μM) or TTM (25, 50, 100 μM) for 1 h. Following which, media was gently aspirated and cells were washed with PBS. To each plate 0.5 ml of crystal violet (0.5%) was added and incubated in dark for 10 minutes at room temperature. The staining solution was removed and plates were washed with PBS (three times). The cells stained with the dye were imaged.

non-TNBC cell lines = assay: MTT cell survival, non-TNBC cell lines; type: cell-based
Procedure: as §1

[3] = test system: fibroblasts derived from Wilson's disease patients; assay: Copper-induced toxicity in Wilson's disease patient-derived fibroblasts; type: cell-based
Procedure: (§2) HepG2 cells purchased from ATCC were cultured in RPMI media containing 10% FBS, 5% CO2 at 37 C. Control (AG09319) and Wilson's disease patient-derived fibroblasts (GM00032, GM00033, GM05257, GM12158, GM05798 and GM11778) were obtained from Coriell Biorepository and cultured in DMEM, 10% FBS, 5% CO2 at 37° C.
(§3) For cell survival assays, 10,000 cells were seeded in a 96 well plate and cultured until fully confluent (90%). To these cells, ATP7B siRNAs or scrambled siRNA (negative control) purchased from Qiagen and Santa Cruz Biotechnology were transfected. Lipofectamine RNAiMAX reagent (Thermofischer) and siRNAs were diluted into a final volume of 100 μl in Opti-MEM (Gibco). The mixture was incubated at room temperature for 30 min, following which 800 μl of Opti-MEM was added to the mixture. The above transfection solution was overlaid onto cells at a final concentration of 5 nM siRNA. Transfection of HepG2 cells with scrambled siRNA served as negative control. Twelve hours after the transfection, complete media was added to each well. Following which, knockdown efficiency was checked (24 hours later) and cells were exposed to varying concentration of copper (0-1 mM) for 12 h and cell viability was determined using the MTT assay as previously described (37). […]

PTP1B-L192A/S372P = PTP1B-L192A/S372P (Homo sapiens, UniProt P18031, L192A/S372P); assay: Phosphatase assay with MSI-1436-resistant mutant; type: biochemical; conditions: read-out: IC50 against PTP1B-L192A/S372P
From the text: All common reagents were obtained from Thermo Fisher Scientific (Waltham, MA) or Sigma-Aldrich (St. Louis, MO). Difluoro-4-methylumbelliferyl phosphate (DiFMUP) was obtained from Invitrogen (cat #D22065). Solid black 384-well plates (cat #3573) for phosphatase assays were from Corning Incorporated (Corning, NY).

[4] = test system: ATP7B-knockdown HepG2 cells; assay: Copper-induced toxicity, MTT cell survival; type: cell-based; conditions: DPM-1001 2 μM; ATP7B-knockdown HepG2
Procedure: as §2, §3

T1 sequence (P18031 1-394): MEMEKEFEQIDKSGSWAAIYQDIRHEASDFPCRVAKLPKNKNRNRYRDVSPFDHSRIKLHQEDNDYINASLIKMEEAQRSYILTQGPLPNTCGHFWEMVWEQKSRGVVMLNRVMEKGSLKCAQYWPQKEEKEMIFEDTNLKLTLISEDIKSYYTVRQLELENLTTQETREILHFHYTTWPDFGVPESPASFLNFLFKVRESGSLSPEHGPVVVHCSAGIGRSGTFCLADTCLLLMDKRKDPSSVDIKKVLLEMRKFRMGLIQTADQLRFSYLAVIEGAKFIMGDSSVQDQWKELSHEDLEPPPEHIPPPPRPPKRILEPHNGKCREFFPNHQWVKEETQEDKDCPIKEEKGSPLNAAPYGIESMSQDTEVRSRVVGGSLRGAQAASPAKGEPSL
Chain of PTP1B-L192A/S372P (P18031 whole entry L192A/S372P): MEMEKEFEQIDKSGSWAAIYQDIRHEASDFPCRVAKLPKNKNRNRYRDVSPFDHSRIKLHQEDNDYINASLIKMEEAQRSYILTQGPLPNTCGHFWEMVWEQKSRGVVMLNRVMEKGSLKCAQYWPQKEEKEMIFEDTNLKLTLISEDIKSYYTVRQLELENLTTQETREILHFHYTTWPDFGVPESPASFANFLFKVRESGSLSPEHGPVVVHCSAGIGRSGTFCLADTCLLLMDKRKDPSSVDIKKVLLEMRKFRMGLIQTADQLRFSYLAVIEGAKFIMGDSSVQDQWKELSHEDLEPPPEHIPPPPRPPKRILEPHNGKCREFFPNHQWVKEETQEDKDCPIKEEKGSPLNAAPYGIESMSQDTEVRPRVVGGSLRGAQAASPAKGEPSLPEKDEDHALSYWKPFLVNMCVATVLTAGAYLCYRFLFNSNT

COC(=O)CCC(C)C1CCC2C3C(O)CC4CC(NCCCCNCc5ccccn5)CCC4(C)C3CCC12C (stereo not shown) [DPM-1001]
weight loss in chow fed mice ([1]; chow diet): without weight loss; also recorded: no weight loss
onset of weight loss ([1]; high fat diet-fed mice): started losing weight within five days of treatment
aggregation of PTP1B (PTP1B1-394): did not induce aggregation
survival of triple-negative breast cancer cells [2]: inhibited survival; also recorded: potently inhibits survival
levels of phospho-Erk (MDA-MB-231 and SUM159): high levels of reduction; also recorded: greater than that seen with 50 μM of bathocuproine disulfonate or 25 μM of TTM
survival of MDA-MB-231 cells (MDA-MB-231 cells): inhibiting survival; also recorded: inhibition of survival
survival of non-TNBC cell lines, DPM-1001 versus DPM-1003 (non-TNBC cell lines): did not differ from each other
protection from copper-induced cell death [3]: prevents such cytotoxic effects; also recorded: inhibited copper-induced cell death
IC50 (PTP1B-L192A/S372P): 1000 nM
protection from copper-induced cell death [4]: able to rescue cells from copper-induced cell death
